In patent US12384772B2, “Inhibitors” (VIVORYON THERAPEUTICS N.V., priority 2017, dated 2025) one finds Ki data, which are given here for 35 compounds.

Read-outs that look alike come from different tables or passages of the source.

The assay concerns the target Glutaminyl cyclase (QC) (Homo sapiens (Human), UniProt Q16769). In words: Glutaminyl cyclase assay, determination of IC50 values and calculation of Ki values (H-Gln-AMC substrate, pGAP auxiliary enzyme; pH 8.0 or pH 6.0). Type of assay: biochemical. Here is the method:
10 mM compound stock solutions were prepared in DMSO. For IC50 determination compound stocks were serially diluted (1:3) in DMSO.
All measurements were performed with an EnSpire Perkin Elmer multimode reader using glutaminyl-7-amino-4-methylcoumarin (H-Gin-AMC) as substrate and recombinant pyroglutamyl aminopeptidase (pGAP) as auxiliary enzyme. Reactions were carried out at ambient temperature in black 96-well half area microplates. Each sample consisted of 1 μl test compound solution or solvent (DMSO) and 49 μl QC appropriately diluted in assay buffer (50 mM Tris/HCl, pH 8.0 or 50 mM MES buffer, pH=6.0). After a 10 min preincubation at ambient temperature the enzyme reaction was started by adding 50 μl of Gln-AMC-substrate/pGAP mixture in assay buffer. Final substrate concentrations were 50 and 200 μM for measurement at pH 8.0 or 6.0, respectively. Release of flourogenic AMC were recorded at excitation/emission wavelengths of 380/460 nm. Initial velocity of the enzyme reaction was calculated by linear regression of the first 10 data points using the Enspire Manager software. Final evaluation and calculation of IC50s were performed using GraphPad Prism software.
Ki-values were calculated according to the following formula: Ki=IC50/(1+[S]/Km), where: […]

The mark [1] stands for this setting: pH 6, read-out: hQC Ki [μM] pH6.
Where [2] appears, read: pH 8, read-out: hQC Ki [μM] pH8.

Sequence of Glutaminyl cyclase (QC) (Q16769 29-361): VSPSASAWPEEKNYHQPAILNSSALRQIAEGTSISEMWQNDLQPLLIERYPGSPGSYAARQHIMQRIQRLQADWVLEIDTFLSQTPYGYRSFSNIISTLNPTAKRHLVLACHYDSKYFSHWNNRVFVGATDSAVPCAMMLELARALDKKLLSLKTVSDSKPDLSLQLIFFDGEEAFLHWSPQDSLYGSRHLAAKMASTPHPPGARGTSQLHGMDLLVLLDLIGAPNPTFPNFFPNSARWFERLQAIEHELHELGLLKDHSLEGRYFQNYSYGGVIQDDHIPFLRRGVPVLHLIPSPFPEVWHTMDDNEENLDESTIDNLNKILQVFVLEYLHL

As for `COc1ccc(-c2ccccc2Nc2ccc(-c3nnc(N)s3)cc2)cc1` [C4, 5-(4-{[2-(4-methoxyphenyl)phenyl]amino}phenyl)-1,3,4-thiadiazol-2-amine], the Ki under setting [1] is 1.87 µM and the Ki under setting [2] was 1.48 µM.
In the case of `COc1ccc(-c2cccnc2Nc2ccc(-c3nnc(N)s3)cc2)cc1` [C5, N-[4-(5-amino-1,3,4-thiadiazol-2-yl)phenyl]-3-(4-methoxyphenyl)pyridin-2-amine], the Ki runs as follows: under setting [1], 4.17 µM; under setting [2], 4.7 µM.
In the case of `COc1ccc(-c2cnccc2Nc2ccc(-c3nnc(N)s3)cc2)cc1` [C6, N-[4-(5-amino-1,3,4-thiadiazol-2-yl)phenyl]-3-(4-methoxyphenyl)pyridin-4-amine], the Ki is 7.16 µM under setting [1] and 4.22 µM under setting [2].
As to `COc1ccc(-c2cnccc2Nc2ccc(-c3nnc(N)s3)cc2)cc1OC` [C7, N-[4-(5-amino-1,3,4-thiadiazol-2-yl)phenyl]-3-(3,4-dimethoxyphenyl)pyridin-4-amine], the Ki reads like this: under setting [1], 54.7 µM; under setting [2], 7.46 µM.
As for `Nc1nnc(-c2ccc(Nc3nccnc3-c3ccc(F)cc3)cc2)s1` [C9, N-[4-(5-amino-1,3,4-thiadiazol-2-yl)phenyl]-3-(4-fluorophenyl)pyrazin-2-amine], the Ki is 1.66 µM under setting [1] and 6.89 µM under setting [2].
For the compound `Nc1nnc(-c2ccc(Nc3ccccc3-c3ccc(Oc4ccccc4)cc3)cc2)s1` [C10, 5-(4-{[2-(4-phenoxyphenyl)phenyl]amino}phenyl)-1,3,4-thiadiazol-2-amine], the Ki under setting [1] was 4.37 µM and the Ki under setting [2] is 2.23 µM.
`CCCOc1ccc(-c2ccccc2Nc2ccc(-c3nnc(N)s3)cc2)cc1` [C11, 5-(4-([2-(4-propoxyphenyl)phenyl]amino)phenyl)-1,3,4-thiadiazol-2-amine]: the Ki runs as follows: under setting [1], 2.15 µM; under setting [2], 2.36 µM.
Taken in the same sequence, the figures for `CC(C)Oc1ccc(-c2ccccc2Nc2ccc(-c3nnc(N)s3)cc2)cc1` [C12, 5-[4-({2-[4-{propan-2-yloxy)phenyl]phenyl}amino)phenyl]-1,3,4-thiadiazol-2-amine] were 1.51 µM and 3.27 µM.
Consider `Nc1nnc(CCCNc2ccccc2-c2ccc(F)cc2)s1` [Comp 93, 5-[3-({4′-fluoro-[1,1′-biphenyl]-2-yl}amino)propyl]-1,3,4-thiadiazol-2-amine], for which the Ki under setting [1] is 2.6 µM and the Ki under setting [2] was 1100 µM.
Consider `Nc1nnc(SCCNc2ccccc2-c2ccc(F)cc2)s1` [Comp 94, 5-{[2-({4′-fluoro-[1,1′-biphenyl]-2-yl}amino)ethyl]sulfanyl}-1,3,4-thiadiazol-2-amine], for which the Ki under setting [1] was 2.97 µM and the inhibitory constant (Ki) under setting [2] is 11.5 µM.
Taken in the same sequence, the figures for `COc1ccc(-c2ccccc2NCCSc2nnc(N)s2)cc1OC` [Comp 178, 5-{[2-({3′,4′-dimethoxy-[1,1′-biphenyl]-2-yl}amino)ethyl]sulfanyl}-1,3,4-thiadiazol-2-amine] were 1.1 µM and 0.97 µM.
For `Cn1cnnc1CCCNc1ccccc1-c1ccc(F)cc1` [Comp 328, 4′-fluoro-N-[3-(4-methyl-4H-1,2,4-triazol-3-yl)propyl]-[1,1′-biphenyl]-2-amine], the Ki is, setting by setting: under setting [1], 1.97 µM; under setting [2], 2.86 µM.
On to `COc1ccc(-c2ccccc2NCCCc2nncn2C)cc1OC` [Comp 384, 3′,4′-dimethoxy-N-[3-(4-methyl-4H-1,2,4-triazol-3-yl)propyl]-[1,1′-biphenyl]-2-amine], for which the Ki runs as follows: under setting [1], 0.13 µM; under setting [2], 0.26 µM.
As for `Nc1nnc(-c2ccc(Nc3ncccc3-c3ccc(F)cc3)cc2)s1` [Comp 521, N-[4-(5-amino-1,3,4-thiadiazol-2-yl)phenyl]-3-(4-fluorophenyl)pyridin-2-amine], the Ki is, setting by setting: under setting [1], 2.69 µM; under setting [2], 4.27 µM.
Taken in the same sequence, the figures for `COc1ccc(-c2ccccc2Nc2ccc(-c3nnc(N)s3)cc2)cc1OC` [Comp 561, 5-(4-{[2-(3,4-dimethoxyphenyl)phenyl]amino}phenyl)-1,3,4-thiadiazol-2-amine] were 0.42 µM and 1.09 µM.
`Cn1cnnc1-c1ccc(Nc2ccccc2-c2ccc(F)cc2)cc1` [Comp 826, 4′-fluoro-N-[4-(4-methyl-4H-1,2,4-triazol-3-yl)phenyl]-[1,1‘-biphenyl]-2-amine]: the Ki under setting [1] was 1.44 µM and the Ki under setting [2] is 1.74 µM.
On to `Cn1cnnc1-c1ccc(Nc2cccnc2-c2ccc(F)cc2)cc1` [Comp 852, 2-(4-fluorophenyl)-N-[4-(4-methyl-4H-1,2,4-triazol-3-yl)phenyl]pyridin-3-amine], for which the Ki under setting [1] was 2.69 µM and the Ki under setting [2] was 5.05 µM.
Consider `COc1ccc(-c2ccccc2Nc2ccc(-c3nncn3C)cc2)cc1OC` [Comp 854, 3′,4′-dimethoxy-N-[4-(4-methyl-4H-1,2,4-triazol-3-yl)phenyl]-[1,1′-biphenyl]-2-amine], for which the Ki is, setting by setting: under setting [1], 0.44 µM; under setting [2], 1.48 µM.
For the compound `Nc1nnc(C2CCN(c3ccccc3-c3ccc(F)cc3)CC2)s1` [Comp 1075, 5-(1-{4′-fluoro-[1,1′-biphenyl]-2-yl}piperidin-4-yl)-1,3,4-thiadiazol-2-amine], the inhibition constant Ki under setting [1] was 0.09 µM and the Ki under setting [2] was 0.248 µM.
As to `Fc1ccc(-c2ccccc2NCc2ccc3[nH]cnc3c2)cc1` [Comp 1226, N-[(1H-1,3-benzodiazol-5-yl)methyl]-4′-fluoro-[1,1′-biphenyl]-2-amine], the inhibition constant (Ki) is, setting by setting: under setting [1], 5.91 µM; under setting [2], 5.29 µM.
For the compound `Fc1ccc(-c2cccnc2NCc2ccc3[nH]cnc3c2)cc1` [Comp 1234, N-(1H-1,3-benzodiazol-5-ylmethyl)-3-(4-fluorophenyl)pyridin-2-amine], the Ki runs as follows: under setting [1], 58.8 µM; under setting [2], 12.3 µM.
As to `Fc1ccc(-c2ncccc2NCc2ccc3[nH]cnc3c2)cc1` [Comp 1252, N-(1H-1,3-benzodiazol-5-ylmethyl)-2-(4-fluorophenyl)pyridin-3-amine], the Ki is 145 µM under setting [1] and 22 µM under setting [2].
For `COc1ccc(-c2ccccc2NCc2ccc3[nH]cnc3c2)cc1OC` [Comp 1254, N-[(1H-1,3-benzodiazol-5-yl)methyl]-3′,4′-dimethoxy-[1,1′-biphenyl]-2-amine], the Ki runs as follows: under setting [1], 0.12 µM; under setting [2], 0.27 µM.
Consider `COc1ccc(-c2cccnc2NCc2ccc3[nH]cnc3c2)cc1OC` [Comp 1262, N-(1H-1,3-benzodiazol-5-ylmethyl)-3-(3,4-dimethoxyphenyl)pyridin-2-amine], for which the Ki is 0.1 µM under setting [1] and 0.23 µM under setting [2].
Taken in the same sequence, the figures for `COc1ccc(NS(=O)(=O)NCCSc2nncn2C)cc1OC` [Comp 1332, [(3,4-dimethoxyphenyl)sulfamoyl]({2-[(4-methyl-4H-1,2,4-triazol-3-yl)sulfanyl]ethyl})amine] were 13.6 µM and 11.8 µM.
For `COc1ccc(-c2ccccc2Nc2ccc(-c3nncn3C)cc2)cc1` [D3, N-[2-(4-methoxyphenyl)phenyl]-4-(4-methyl-4H-1,2,4-triazol-3-yl)aniline], the Ki was 0.99 µM under setting [1] and 1.69 µM under setting [2].
For `COc1ccc(-c2ncccc2Nc2ccc(-c3nncn3C)cc2)cc1` [D4, 2-(4-methoxyphenyl)-N-[4(4-methyl-4H-1,2,4-triazol-3-yl)phenyl]pyridin-3-amine] the same measures were 1.7 µM and 3.37 µM.
For `Cn1cnnc1-c1ccc(Nc2ccccc2-c2ccc(Oc3ccccc3)cc2)cc1` [D6, 4-(4-methyl-4H-1,2,4-triazol-3-yl)-N-[2-(4-phenoxyphenyl)phenyl]aniline] the same measures were 1.33 µM and 1.81 µM.
Consider `COc1ccc(-c2cnccc2Nc2ccc(-c3nncn3C)cc2)cc1OC` [D7, 3-(3,4-dimethoxyphenyl)-N-[4-(4-methyl-4H-1,2,4-triazol-3-yl)phenyl]pyridin-4-amine], for which the Ki under setting [2] is 10.1 µM.
Take `Nc1nnc(CCCNS(=O)(=O)c2ccc(F)cc2)s1` [E2, N-[3-(5-amino-1,3,4-thiadiazol-2-yl)propyl]-4-fluorobenzene-1-sulfonamide]: the Ki reads like this: under setting [1], 18.1 µM; under setting [2], 9.38 µM.
As for `Nc1nnc(SCCNS(=O)(=O)c2ccc(F)cc2)s1` [E3, N-{2-[(5-amino-1,3,4-thiadiazol-2-yl)sulfanyl]ethyl}-4-fluorobenzene-1-sulfonamide], the Ki under setting [1] is 19.9 µM and the Ki under setting [2] is 26.5 µM.
With `CS(=O)(=NCCCc1nnc(N)s1)c1ccc(F)cc1` (stereo not drawn) [F2, 5-(3-{[(4-fluorophenyl)(methyl)oxo-λ^6-sulfanylidene]amino}propyl)-1,3,4-thiadiazol-2-amine], the Ki under setting [1] was 11.4 µM and the Ki under setting [2] is 11.7 µM.
For `Cn1cnnc1SCCNS(=O)(=O)c1ccc(F)cc1` [G2, 4-fluoro-N-{2-[(4-methyl-4H-1,2,4-triazol-3-yl)sulfanyl]ethyl}benzene-1-sulfonamide], the inhibitory constant (Ki) is 8.84 µM under setting [1] and 11.5 µM under setting [2].
Taken in the same sequence, the figures for `Nc1ncc(-c2ccc(NS(=O)(=O)c3ccc(F)cc3)cc2)s1` [I1, N-[4-(2-amino-1,3-thiazol-5-yl)phenyl]-4-fluorobenzene-1-sulfonamide] were 2.93 µM and 2.64 µM.
Taken in the same sequence, the figures for `Nc1ncc(C2CCN(S(=O)(=O)c3ccc(F)cc3)CC2)s1` [M1, 5-[1-(4-fluorobenzenesulfonyl)piperidin-4-yl]-1,3-thiazol-2-amine] were 1.32 µM and 1.7 µM.

For orientation: Ki means the dissociation constant of the complex between target and ligand, obtained from inhibition or displacement.
